For test [1], the target named is T1, Alkaline phosphatase, tissue-nonspecific isozyme (Homo sapiens, UniProt P05186).
T1 sequence (P05186 whole entry): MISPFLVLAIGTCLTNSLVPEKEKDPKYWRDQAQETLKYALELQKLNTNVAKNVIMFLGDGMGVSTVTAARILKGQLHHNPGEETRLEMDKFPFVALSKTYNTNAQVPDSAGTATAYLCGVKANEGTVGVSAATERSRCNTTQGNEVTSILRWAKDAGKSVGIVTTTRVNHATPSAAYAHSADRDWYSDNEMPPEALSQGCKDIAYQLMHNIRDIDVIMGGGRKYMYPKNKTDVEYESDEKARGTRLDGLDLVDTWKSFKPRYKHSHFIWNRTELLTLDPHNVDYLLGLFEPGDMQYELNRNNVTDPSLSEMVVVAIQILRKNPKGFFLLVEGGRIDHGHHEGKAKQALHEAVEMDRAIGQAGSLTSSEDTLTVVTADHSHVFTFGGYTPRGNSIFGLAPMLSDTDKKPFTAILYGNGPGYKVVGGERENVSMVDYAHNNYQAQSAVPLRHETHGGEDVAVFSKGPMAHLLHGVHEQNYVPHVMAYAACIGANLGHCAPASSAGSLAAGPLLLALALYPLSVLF
Put plainly: human TNAP enzyme inhibitors, SAR follow-up, biochemical, luminescent, dose response (AID 1056).

For test [2], the target named is Glyceraldehyde-3-phosphate dehydrogenase (Homo sapiens, UniProt P04406).
The target in another test is T2, Coagulation factor XII (Homo sapiens, UniProt P00748).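 Also: activated factor XIIa alpha cleaving a fluorogenic AMC peptide substrate; inhibitor potency from loss of enzyme activity.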
T2 sequence (P00748 whole entry): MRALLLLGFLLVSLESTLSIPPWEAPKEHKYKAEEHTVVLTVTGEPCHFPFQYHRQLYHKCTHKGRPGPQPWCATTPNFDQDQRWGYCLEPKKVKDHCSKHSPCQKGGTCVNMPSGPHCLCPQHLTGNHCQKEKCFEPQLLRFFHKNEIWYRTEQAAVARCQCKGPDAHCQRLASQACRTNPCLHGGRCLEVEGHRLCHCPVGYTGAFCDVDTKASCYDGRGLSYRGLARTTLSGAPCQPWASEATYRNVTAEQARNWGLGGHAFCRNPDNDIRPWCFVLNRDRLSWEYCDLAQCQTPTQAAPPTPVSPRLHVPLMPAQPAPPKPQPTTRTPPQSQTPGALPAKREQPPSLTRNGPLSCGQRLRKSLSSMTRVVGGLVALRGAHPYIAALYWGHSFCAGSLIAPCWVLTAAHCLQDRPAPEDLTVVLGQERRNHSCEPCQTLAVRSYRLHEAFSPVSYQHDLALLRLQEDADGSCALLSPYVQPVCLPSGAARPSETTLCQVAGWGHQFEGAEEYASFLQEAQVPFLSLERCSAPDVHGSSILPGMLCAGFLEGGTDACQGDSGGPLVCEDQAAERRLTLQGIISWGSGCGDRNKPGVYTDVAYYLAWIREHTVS
It counts as functional.

The target in test [3] is Dual specificity tyrosine-phosphorylation-regulated kinase 1A (Rattus norvegicus, UniProt Q63470). It counts as biochemical, Homo sapiens.
Test [4] addresses Peroxisome proliferator-activated receptor gamma/Nuclear receptor coactivator 1 (Homo sapiens, UniProt P37231). Put plainly: TR-FRET dose response biochemical High Throughput Screening assay for agonists of the steroid receptor coactivator 1 (SRC-1) recruitment by the peroxisome proliferator-activated receptor gamma (PPAR gamma): non-selective agonists. [Related pubchem assays (depositor defined):AID1300, AID1808, AID504735, AID631]. It counts as protein assay. (Time-resolved FRET reads energy transfer from a long-lived donor to a nearby acceptor.)

Test [5] deals with Peroxisome proliferator-activated receptor gamma/Nuclear receptor coactivator 2 (Homo sapiens, UniProt P37231). Put plainly: TR-FRET dose response biochemical High Throughput Screening assay for agonists of the steroid receptor coactivator 2 (SRC-2) recruitment by the peroxisome proliferator-activated receptor gamma (PPAR gamma): non-selective agonists. [Related pubchem assays: 1297, 1032 ]. Type of test: functional.

Test [6] concerns the target T3, SUMO-activating enzyme (Homo sapiens, UniProt Q9UBT2). Kind of test: SUMOylation inhibitor hit validation, confirmation, SUMOylation inhibitor project, biochemical, AlphaScreen (AID 2018). Type of test: functional. For orientation: Bead proximity is the source of the signal in Alpha formats.
Test [7] deals with T3, SUMO-activating enzyme. Put plainly: inhibitors of in vitro SUMOylation cascade, primary screen, biochemical, HTRF, uHTS (AID 2006). Type of test: protein-complex assay.
For test [8], the target named is T4, Fatty acid synthase (Homo sapiens, UniProt P49327). Kind of test: FAS thioesterase domain inhibitors, dose response, biochemical, kinetic fluorescence intensity (AID 624326).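 Also: rate of fluorescence rise from hydrolysis of a fluorogenic O-methyl fluorescein ester substrate.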 It counts as functional.
For the next test, the target named is Major prion protein (Homo sapiens, UniProt P04156). It counts as functional, cell-based.
Test [9] has as its target T4, Fatty acid synthase. Kind of test: FAS thioesterase domain inhibitors, dose response, biochemical, endpoint fluorescence intensity, uHTS hits (AID 624327).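 Also: fluorescence from hydrolysis of an O-methyl fluorescein acyl ester substrate by the enzyme.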 It counts as functional.
In test [10] the target is Peroxisome proliferator-activated receptor gamma/Nuclear receptor coactivator 3 (Homo sapiens, UniProt P37231). Put plainly: TR-FRET dose response biochemical High Throughput Screening assay for agonists of the steroid receptor coactivator 3 (SRC-3) recruitment by the peroxisome proliferator-activated receptor gamma (PPAR gamma): non-selective agonists. [Related pubchem assays: 1301 (Confirmation screen.), 1048 (Primary screen.)]. It counts as functional.

The target in test [11] is T5, Short transient receptor potential channel 4 (Mus musculus, UniProt Q9QUQ5).
T5 sequence (Q9QUQ5 whole entry): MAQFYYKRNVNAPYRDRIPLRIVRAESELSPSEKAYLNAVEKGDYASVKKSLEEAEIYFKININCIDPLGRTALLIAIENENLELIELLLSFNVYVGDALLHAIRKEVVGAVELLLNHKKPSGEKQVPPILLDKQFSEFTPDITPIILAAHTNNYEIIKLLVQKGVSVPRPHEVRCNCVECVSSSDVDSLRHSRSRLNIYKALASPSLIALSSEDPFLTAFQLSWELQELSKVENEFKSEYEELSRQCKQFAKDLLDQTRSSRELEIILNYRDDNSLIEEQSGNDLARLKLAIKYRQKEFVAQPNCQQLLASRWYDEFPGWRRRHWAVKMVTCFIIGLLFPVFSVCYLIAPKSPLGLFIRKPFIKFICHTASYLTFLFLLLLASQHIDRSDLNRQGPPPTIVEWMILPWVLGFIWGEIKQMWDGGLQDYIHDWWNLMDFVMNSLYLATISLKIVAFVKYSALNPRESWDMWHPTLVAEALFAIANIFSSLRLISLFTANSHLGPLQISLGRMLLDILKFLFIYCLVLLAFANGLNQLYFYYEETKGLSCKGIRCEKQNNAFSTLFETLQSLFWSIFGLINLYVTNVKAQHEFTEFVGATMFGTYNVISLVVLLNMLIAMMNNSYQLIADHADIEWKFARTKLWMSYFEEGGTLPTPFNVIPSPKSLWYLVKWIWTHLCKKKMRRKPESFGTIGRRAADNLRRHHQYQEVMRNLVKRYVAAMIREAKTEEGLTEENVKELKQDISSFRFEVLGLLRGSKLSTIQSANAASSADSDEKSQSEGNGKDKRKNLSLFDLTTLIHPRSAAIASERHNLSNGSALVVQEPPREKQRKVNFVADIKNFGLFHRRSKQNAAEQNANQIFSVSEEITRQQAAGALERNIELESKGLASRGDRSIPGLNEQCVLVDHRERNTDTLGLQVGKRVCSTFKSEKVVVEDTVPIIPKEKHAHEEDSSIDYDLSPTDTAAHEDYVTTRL
Kind of test: mouse TRPC4 channel inhibitors, dose response, cell-based, HEK293 TRPC4/mu-opioid, Fluo-4 calcium (AID 434942).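 Also: potency of inhibitors blocking the TRPC4 calcium response.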 Type of test: functional.

Test [12] deals with HEK293. Put plainly: NOD2 signaling inhibitors in MDP-stimulated cells, cell-based, uHTS, luminescence (AID 2001). Type of test: functional. Conditions: Homo sapiens.
Test [13] relates to HEK293. Put plainly: NOD1 signaling inhibitors, primary screen, cell-based, luminescence, uHTS (AID 1578). It counts as functional. Conditions: Homo sapiens.
In test [14] the test system is HEK293. Kind of test: cells. It counts as functional, cell-based. Conditions: Homo sapiens.
The subject of test [15] is HEK293. Kind of test: cells. It counts as functional, cell-based. Conditions: Homo sapiens. The source holds these as a separate data set.
In test [16] the target is Photoreceptor-specific nuclear receptor (Homo sapiens, UniProt Q9Y5X4). Type of test: functional, cell-based.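 Also: CHO-S cells with Gal4-NCOR and VP16-NR2E3 two-hybrid luciferase reporter.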
For test [17], the target named is Glucose-6-phosphate 1-dehydrogenase (Homo sapiens, UniProt P11413). Kind of test: human G6PD enzyme inhibitors, dose response, selectivity assay for P. falciparum G6PD inhibitor project, biochemical, fluorescence (AID 504792). Type of test: functional.
Test [18] addresses T6, Adenosylmethionine-8-amino-7-oxononanoate aminotransferase (Mycobacterium tuberculosis, UniProt P9WQ81).
T6 sequence (P9WQ81 whole entry): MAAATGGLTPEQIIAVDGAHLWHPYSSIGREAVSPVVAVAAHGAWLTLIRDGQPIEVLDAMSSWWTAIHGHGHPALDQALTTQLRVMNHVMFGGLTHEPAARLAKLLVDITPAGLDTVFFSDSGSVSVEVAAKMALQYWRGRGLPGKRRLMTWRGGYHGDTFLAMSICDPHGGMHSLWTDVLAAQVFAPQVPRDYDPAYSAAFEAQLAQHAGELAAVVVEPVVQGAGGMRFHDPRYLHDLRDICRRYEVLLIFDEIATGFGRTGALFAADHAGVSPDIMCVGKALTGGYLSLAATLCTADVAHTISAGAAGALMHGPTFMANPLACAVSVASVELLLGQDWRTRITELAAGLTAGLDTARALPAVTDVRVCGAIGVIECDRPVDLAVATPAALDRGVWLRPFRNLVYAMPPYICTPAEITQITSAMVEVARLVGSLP
Put plainly: Mycobacterium tuberculosis BioA enzyme inhibitor Measured in Biochemical System Using Plate Reader - 2163-02_Inhibitor_Dose_CherryPick_Activity. Type of test: functional, Mycobacterium tuberculosis UT205.

As a reminder, the IC50 is the concentration at which inhibition is half-maximal. A word on the AC50: it is the midpoint of the concentration-response curve, whichever way the signal moves. Usually EC50 stands for the concentration at which the effect is half-maximal.

The source made the active and inactive calls.

Regarding `O=S(=O)(Nc1ccc2ccccc2c1)c1cc(Cl)ccc1F`, the IC50 in test [1] was > 10 µM (inactive); in [2] it was > 10 µM (inconclusive).

As for `O=C(NNc1c(Cl)cc(Cl)cc1Cl)c1nnc(O)c2ccccc12`, the IC50 on Coagulation factor XII was > 50 µM (inactive).

`O=C1N=C(NS(=O)(=O)Cc2ccccc2)S/C1=C/c1ccc2c(c1)OCO2`: the AC50 in test [3] is 2.56 µM (active).

With `N#Cc1c(-c2cccs2)nc(SCc2ccc(Cl)cc2)[nH]c1=O`, the EC50 in test [4] is > 79.4 µM (inactive); in test [5], > 79.4 µM (not active); in [10], > 79.4 µM (not active); in test [11], 4.22 µM (active). Also, the IC50 at SUMO-activating enzyme [6] was 9.93 µM (active); on SUMO-activating enzyme [7], 18 µM (active); at Fatty acid synthase [8], 5.61 µM (active); at Major prion protein, 1.05 µM (active); at Fatty acid synthase [9], 6.44 µM (active).

Regarding `N#Cc1c(O)nc(SCc2ccc(Cl)cc2)nc1-c1cccs1`, the IC50 in the test with HEK293 [12] was 6.99 µM (inactive); with HEK293 [14], 11.5 µM (active); in “cells” it was > 138 µM (inactive); in the test with HEK293 [15], 18.9 µM (active). Moreover, the EC50 with HEK293 [13] was 4.58 µM (active).

In the case of `COc1ccc(S(=O)(=O)N2CCCCC2)cc1N=C(S)Nc1cccc(Cl)c1C`, in test [16], the IC50 was 0.962 µM (active).

For the molecule `CCC(NC(=O)c1ccc2nc(Cc3ccc(OC)cc3)oc2c1)c1ccncc1` (stereo not drawn), the IC50 was 12.5 µM (inactive) in the test with HEK293 [12], 8.15 µM (active) in the test on HEK293 [14] and 16.5 µM (active) in the test with HEK293 [15]. Besides, the EC50 with HEK293 [13] was 4.58 µM (active).

In the case of `CN(c1ccccc1)S(=O)(=O)c1ccc(NC(=S)NC(=O)c2ccccc2)cc1`, the IC50 on Coagulation factor XII is > 50 µM (inactive).

Take `Cc1cccc(NC(=O)CSCc2c(C)noc2C)c1C`: the IC50 on Coagulation factor XII is > 50 µM (inactive).

Turning to `CC(C)C(NC(=O)CC12CC3CC(CC(C3)C1)C2)C(=O)O` (stereo not drawn), at Coagulation factor XII, the IC50 is > 50 µM (inactive).

Regarding `CCN(CC)CCn1c2ccccc2c(=O)c2c(O)ccc(O)c21`, the IC50 in test [17] was 64.6 µM (inactive). In addition, the AC50 in [3] is 3.16 µM (active).

Take `CCC1(OC(=O)CN(C)C)C(=O)OCc2c1cc1n(c2=O)Cc2cc3c(N)cccc3nc2-1` (stereo not drawn): in test [16], the IC50 was 2.92 µM (active).

As to `O=C(c1ccccc1F)N1CC[C@@H]2[C@H]1c1cc(Br)ccc1N[C@@H]2CO`, the AC50 in test [18] is 1.53 µM (active).

Turning to `O=C(C[C@H]1C[C@@H]2c3cc(NC(=O)c4cccnc4)ccc3O[C@@H]2[C@@H](CO)O1)NCC(F)(F)F`, the AC50 in test [18] was 16.8 µM (active).

Consider `CCN1[C@H](C(=O)NCc2ccccc2)[C@@H](CO)[C@@H]2Cn3c(ccc(-c4cccnc4)c3=O)[C@@H]21`, for which the AC50 in test [18] is 13.2 µM (active).

On to `CC(=O)Oc1ccc2c(c1)C(=O)c1ccccc1C2=O`, for which the AC50 in test [3] was 36.2 µM (active).

Values taken from ChEMBL document CHEMBL1201862, “PubChem BioAssay data set” (2004).
